IC50 data for 21 compounds are collected here from patent US5686424A, “2-oxoethyl derivatives as immunosuppressants” (Miles Inc., priority 1995, dated 1997).

The target in one assay is FKBP (Homo sapiens, UniProt P62942). The assay can be described thus: PPIase Inhibition Assay. It counts as biochemical. To be noted: concentration of inhibitor required for 50% inhibition of enzyme activity; FKBP, substrate Succinyl-Ala-Phe-Pro-Phe-para-nitroanilide; TABLE I. Summed up:
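Chymotrypsin-coupled isomerization of Succinyl-Ala-Phe-Pro-Phe-para-nitroanilide by FKBP in ice-cold 25 mM HEPES pH 7.8, 100 mM NaCl, compound in DMSO. A390 followed 90 sec; first-order rate constants give % activity remaining after subtracting uncatalyzed rate; IC50 by linear regression of V-/V+ versus concentration.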

The subject of a further assay is NF-AT. The assay can be described thus: NF-AT Inhibition Assay Directed β-Galactosidase Expression in FGL-5 cells. The class given is cell-based. The conditions noted are these: 50% inhibition of NF-AT directed β-galactosidase activity in FGL-5 cells stimulated with phorbol dibutyrate and ionomycin; TABLE 3. The protocol: 3) NF-AT Assay Stimulation of T-cells leads to the appearance of several transcription factors, including one designated "NF-AT". These factors are involved in regulation of gene expression required for immunologic activation. Some of these transcription factors appear to have functions in a wide variety of cell types. By contrast, NF-AT is found primarily in T-cells and its role is restricted to early gene activation. […] Inhibition of NF-AT activity is measured using FGL-5 cells. FGL-5 is a cloned line of stably transfected Jurkat T-cells that contain two construct in which three tandem copies of the NF-AT DNA binding site direct transcription of both murine CD8 and the lacZ gene, encoding β-galactosidase ([…] et al., 1990, Genes & Development 4:1823). When these cells are stimulated with phorbol esters which activate protein kinase C and calcium ionophore to raise the intracellular calcium concentration, transcriptionally active NF-AT is produced. In T-cells, this normally leads to the expression of IL-2, T-cell growth factor. However, in FGL-5 cells NF-AT activation leads to the production of β-galactosidase which can be detected using an appropriate substrate. […] NF-AT Inhibition Assay Directed β-Galactosidase Expression This assay was performed essentially as described (Bierer et al., 1990, Proc. Natl. Acad. Sci. 87:9231). […] The assays were done with exponentially growing cells whose density was not greater than 0.5 million cells/ml. The cells were resuspended to 3 million cells/ml in medium and 0.1 ml was added to wells of a 96-well plate. The compounds of the present invention were dissolved in either ethanol or dimethylsulfoxide at 10 mM and […] of various dilutions in medium were added to cells in duplicate wells. Treatment controls consisted of duplicate wells containing 0.5 ml/well of either medium, ethanol or dimethylsulfoxide. The ethanol and dimethyl sulfoxide were at the same concentration as was used for the compounds. […] Phorbol dibutyrate (Sigma) and Ionomycin (Calbiochem) were dissolved at 50 μg/ml and 2 mM, respectively and stored at -70° C. […] For unstimulated cell controls, 0.5 ml/well of medium was added to duplicate wells. The plates were incubated overnight (16-18 hours) at 37° C. in a humidified atmosphere of 5% CO2 and air. β-galactosidase activity was measured as the fluorescence generated by the cleavage of 4-methyl umbelliferyl-β-D-galactoside (Sigma) at the β-galactoside bond. After overnight incubation, the cells were centrifuged at 500×g for 3 minutes in the 96-well plates and washed 3 times with PBS. […] The percent inhibition by each concentration of the compounds was calculated as: […]

Another assay has as its system human T-cells. The assay can be described thus: Suppression of Human T-Cell Proliferation Assay (PHA-stimulated, [3H]-thymidine incorporation). It counts as cell-based. The conditions noted are these: concentration inhibiting [3H]-thymidine incorporation of PHA-stimulated T-cells by 50%, 72 hours; TABLE 2; read-out: IC50. Summed up: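 SRBC-rosette-purified human peripheral T-cells stimulated with PHA-M (40 μg/ml stock) and compound dilutions, in duplicate, for 72 h at 37° C. Proliferation measured by [3H]-thymidine incorporation during the final 6 h, read by liquid scintillation counting.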

Sequence of FKBP (P62942 whole entry): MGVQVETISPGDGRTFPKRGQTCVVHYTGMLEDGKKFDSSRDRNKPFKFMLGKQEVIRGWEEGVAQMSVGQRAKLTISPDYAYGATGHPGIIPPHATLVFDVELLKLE

As a reminder, the IC50 is the concentration needed to halve the response being measured. As for `CCCCCC1CCC(C(=O)CN2CCC[C@H]2C(=O)N[C@H](C(=O)NCc2ccccc2)[C@@H](C)CC)CC1` (stereo partly drawn) [Example 42, L-Isoleuclne, N-[1-(2-(4-Pentylcyclohexyl)-2-Oxoethyl)-L-Prolyl] Benzylamide], the IC50 at FKBP is over 5 µM; in the assay on NF-AT, 22 µM; with human T-cells, 7 µM.

Regarding `CC[C@H](C)[C@H](NC(=O)[C@@H]1CCCN1CC(=O)C1CCc2ccccc2C1)C(=O)NCc1ccccc1` (stereo partly drawn) [Example 43, L-Isoleuclne, N-[1-(2-(1,2,3,4-tetrahydro-Napththalen-2-yl)-2-Oxoethyl)-L-Prolyl] Benzylamide], the IC50 at FKBP was under 5 µM; with NF-AT it was 14 µM; in the assay with human T-cells, 16 µM.

With `CC[C@H](C)[C@H](NC(=O)[C@@H]1CCCN1CC(=O)C12CC3CC(CC1C3)C2)C(=O)NCc1ccccc1` [Example 45, L-Isoleucine, N-[1-(2-Oxo-2-Tricyclo[3.3.1.0 ^3,7]Non-3-yl-Ethyl)-L-Prolyl] Benzylamide], the IC50 is under 5 µM against FKBP, over 33 µM in the assay on NF-AT and 20 µM with human T-cells.

In the case of `CC[C@H](C)[C@H](NC(=O)[C@@H]1CCCN1CC(=O)CC12CC3CC(CC(C)(C3)C1)C2)C(=O)NCc1ccccc1` [Example 46, L-Isoleucine, N-[1-(2-Oxo-3-(3-Methyl-Adamantan-1-yl)-Propyl)-L-Prolyl] Benzylamide], the IC50 against FKBP was under 5 µM; in the assay with NF-AT, 15 µM; in the assay on human T-cells, 13 µM.

On to `O=C(CNC(=O)[C@@H]1CCCN1CC(=O)C12CC3CC(CC(C3)C1)C2)NCc1ccccc1` [Example 55, Glycine, N-[1-(2-Adamantan-1-yl-2-Oxoethyl)-L-Prolyl] Benzylamide], for which the IC50 against FKBP is 5.1 µM; with NF-AT, 44 µM; with human T-cells it was 13 µM.

As for `CC(C)[C@H](NC(=O)[C@@H]1CCCN1CC(=O)C12CC3CC(CC(C3)C1)C2)C(=O)NCc1ccccc1` [Example 56, L-Valine, N-[1-(2-Adamantan-1-yl-2-Oxoethyl)-L-Prolyl] Benzylamide], the IC50 against FKBP came out at 1.2 µM; in the assay with NF-AT, 73 µM; with human T-cells it was 8 µM.

`CC(C)C[C@H](NC(=O)[C@@H]1CCCN1CC(=O)C12CC3CC(CC(C3)C1)C2)C(=O)NCc1ccccc1` [Example 57, L-Leucine, N-[1-(2-Adamantan-1-yl-2-Oxoethyl)-L-Prolyl] Benzylamide]: the results for the IC50 against FKBP, in the assay on NF-AT and with human T-cells were 0.22 µM, over 100 µM and 8 µM, respectively.

Take `O=C(NCc1ccccc1)[C@H](Cc1ccccc1)NC(=O)[C@@H]1CCCN1CC(=O)C12CC3CC(CC(C3)C1)C2` [Example 58, L-Phenylalanine, N-[1-(2-Adamantan-1-yl-2-Oxoethyl)-L-Prolyl] Benzylamide]: the IC50 at FKBP turned out to be 2.3 µM; in the assay with NF-AT it was 20 µM; with human T-cells, 7 µM.

`CCC[C@H](NC(=O)[C@@H]1CCCN1CC(=O)C12CC3CC(CC(C3)C1)C2)C(=O)NCc1ccccc1` [Example 59, L-Norvaline, N-[1-(2-Adamantan-1-yl-2-Oxoethyl)-L-Prolyl] Benzylamide]: the IC50 was 0.71 µM at FKBP, over 100 µM with NF-AT and 10 µM in the assay on human T-cells.

With `CCCC[C@H](NC(=O)[C@@H]1CCCN1CC(=O)C12CC3CC(CC(C3)C1)C2)C(=O)NCc1ccccc1` [Example 60, L-Norleucine, N-[1-(2-Adamantan-1-yl-2-Oxoethyl)-L-Prolyl] Benzylamide], the IC50 at FKBP turned out to be 0.4 µM; in the assay on NF-AT, 18 µM; in the assay on human T-cells, 16 µM.

Consider `NC(=O)C[C@H](NC(=O)[C@@H]1CCCN1CC(=O)C12CC3CC(CC(C3)C1)C2)C(=O)NCc1ccccc1` [Example 61, L-Asparagine, N-[1-(2-Adamantan-1-yl-2-Oxoethyl)-L-Prolyl] Benzylamide], for which the IC50 against FKBP was under 5 µM; in the assay on NF-AT, over 100 µM; in the assay on human T-cells, 17 µM.

In the case of `O=C(NCc1ccccc1)[C@H](CC1CCCCC1)NC(=O)[C@@H]1CCCN1CC(=O)C12CC3CC(CC(C3)C1)C2` [Example 64, L-Cyclohexylalanine, N-[1-(2-Adamantan-1-yl-2-Oxoethyl)-L-Prolyl] Benzylamide], the IC50 is under 5 µM on FKBP, 16 µM in the assay with NF-AT and 7 µM in the assay on human T-cells.

Turning to `CC[C@H](C)[C@H](NC(=O)[C@@H]1CCCN1CC(=O)C12CC3CC(CC(C3)C1)C2)C(=O)N[C@@H](C)c1ccccc1` [Example 65, L-Isoleucine, N-[1-(2-Adamantan-1-yl-2-Oxoethyl)-L-Prolyl] alpha-(S)-methylbenzylamide], the IC50 at FKBP was found to be 0.1 µM; in the assay on NF-AT it was 17 µM; with human T-cells, 8 µM.

With `CC[C@H](C)[C@H](NC(=O)[C@@H]1CCCN1CC(=O)C12CC3CC(CC(C3)C1)C2)C(=O)NCc1ccncc1` [Example 67, L-Isoleucine, N-[1-(2-Adamantan-1-yl-2-Oxoethyl)-L-Prolyl] Pyridin-4-ylmethylamide], the half-inhibitory concentration (IC50) against FKBP is 0.71 µM; in the assay on NF-AT, over 100 µM; with human T-cells, 19 µM.

Take `CC[C@H](C)[C@H](NC(=O)[C@@H]1CCCN1CC(=O)C12CC3CC(CC(C3)C1)C2)C(=O)NCc1ccccn1` [Example 68, L-Isoleucine, N-[1-(2-Adamantan-1-yl-2-Oxoethyl)-L-Prolyl] Pyridin-2-ylmethylamide]: the IC50 at FKBP was 0.4 µM; in the assay with NF-AT, 60 µM; with human T-cells it was 16 µM.

For the compound `CC[C@H](C)[C@H](NC(=O)[C@@H]1CCCN1CC(=O)C12CC3CC(CC(C3)C1)C2)C(=O)NCc1ccc(OC)cc1` [Example 69, L-Isoleucine, N-[1-(2-Adamantan-1-yl-2-Oxoethyl)-L-Prolyl] 4-methoxybenzylamide], the results for the IC50 against FKBP, in the assay on NF-AT and with human T-cells were 0.2 µM, 16 µM and 8 µM, respectively.

Turning to `CC[C@H](C)[C@H](NC(=O)[C@@H]1CCCN1CC(=O)C12CC3CC(CC(C3)C1)C2)C(=O)NCc1ccccc1OC` [Example 70, L-Isoleucine, N-[1-(2-Adamantan-1-yl-2-Oxoethyl)-L-Prolyl] 2-methoxybenzylamide], the concentration for half-maximal inhibition (IC50) on FKBP is 0.64 µM; in the assay with NF-AT, 16 µM; in the assay on human T-cells, 7 µM.

Consider `CC[C@H](C)[C@H](NC(=O)[C@@H]1CCCN1CC(=O)OCC=C(C)CCC=C(C)CCC=C(C)C)C(=O)NCc1ccccc1` [Example 83, L-Isoleucine, N-[1-(2-[1-(3,7,11-Trimethyldodeca-2,6,10-trien-1-ol)]-2-Oxoethyl)-L-Proline] Benzylamide], for which the IC50 was over 5 µM at FKBP, 12 µM with NF-AT and 7 µM in the assay with human T-cells.

As to `CC[C@H](C)[C@H](NC(=O)[C@@H]1CCCN1CC(=O)OCC=Cc1ccccc1)C(=O)NCc1ccccc1` [Example 84, L-Isoleucine, N-[1-(2-(3-Phenyl-2-Propen-1-Oxy)-2-Oxoethyl)-L-Prolyl] Benzylamide], the IC50 is 3.2 µM against FKBP, over 100 µM with NF-AT and over 100 µM with human T-cells.

With `CC[C@H](C)[C@H](NC(=O)[C@@H]1CCCN1CC(=O)OCC=C(C)c1ccccc1)C(=O)NCc1ccccc1` [Example 85, L-Isoleucine, N-[1-(2-(3-Phenyl-3-Methyl-2-Propen-1-Oxy)-2-Oxoethyl)-L-Prolyl] Benzylamide], the IC50 is under 5 µM at FKBP, 13 µM in the assay with NF-AT and 22 µM in the assay with human T-cells.

Turning to `CCC(OC(=O)CN1CCC[C@H]1C(=O)N[C@H](C(=O)NCc1ccccc1)[C@@H](C)CC)c1ccccc1` (stereo partly drawn) [Example 86, L-Isoleucine, N-[1-(2-(1-Phenylpropoxy)-2-Oxoethyl)-L-Prolyl] Benzylamide], the IC50 at FKBP was found to be 0.88 µM; in the assay with NF-AT, 13 µM; with human T-cells, 22 µM.
